Some test systems named below: Bacillus subtilis DELTA; Candida parapsilosis; Bacillus cereus AS1.126; Escherichia coli AS1.349; Escherichia coli DL7.
Experiment in all cases: ≥ marks a high value that may be exact or a test limit, other limits are often not marked, values filed in µg/mL are converted to µM
The subject of experiment [1] is Pectobacterium carotovorum.
Experiment [2] deals with Pseudomonas aeruginosa PAO1.
For experiment [3], the system named is Escherichia coli DH5alpha.
The subject of experiment [4] is Zymomonas mobilis ATCC 10988.
Experiment [5] has as its system Staphylococcus aureus ATCC 29213.
Experiment [6] has as its system Pseudomonas aeruginosa ATCC 27853.
Experiment [7] relates to Klebsiella pneumoniae ATCC 700603.
Experiment [8] has as its system Staphylococcus aureus ATCC 700699.
In experiment [9] the test system is Escherichia coli ATCC 25922.
The subject of experiment [10] is Staphylococcus aureus ATCC 33591.
The test system of experiment [11] is Staphylococcus aureus AS1.72.
Experiment [12] relates to Enterococcus faecium CGMCC 1.2334.
For experiment [13], the system named is Pseudomonas aeruginosa CGMCC 1.860.
Experiment [14] deals with Staphylococcus epidermidis CICC 23664.
The test system of experiment [15] is Klebsiella pneumoniae subsp. pneumoniae CGMCC 1.176.
Experiment [16] has as its system Proteus mirabilis CICC 22931.
For experiment [17], the system named is Enterococcus faecalis CGMCC 1.595.
Experiment [18] relates to Enterobacter cloacae CGMCC 1.58.
Experiment [19] has as its system Escherichia coli NEB5alpha.
Experiment [20] relates to Bacillus subtilis ATCC 6051.
Experiment [21] relates to Klebsiella aerogenes ATCC 13048.
The subject of experiment [22] is Staphylococcus epidermidis ATCC 12228.
The test system of experiment [23] is Cronobacter sakazakii DPC 6440.
For experiment [24], the system named is Listeria monocytogenes LO28.

≈ marks a conversion by molar mass, not a printed value. Where “and” joins values, the source holds several entries; their conditions need not be identical. Identical values can stand only once.

A word on the MIC: it is the lowest concentration found to suppress growth. Higher therefore signals weaker potency.

On to `CC[C@H](C)[C@H](NC(=O)[C@H](C)NC(=O)[C@@H](N)CS)C(=O)N[C@@H](CCC(=O)O)C(=O)N[C@@H](Cc1cnc[nH]1)C(=O)N[C@@H](CCSC)C(=O)N[C@@H](CCCN=C(N)N)C(=O)N[C@H](C(=O)N1CCC[C@H]1C(=O)N[C@@H](CC(C)C)C(=O)N[C@@H](CCCCN)C(=O)N1CCC[C@H]1C(=O)N[C@@H](Cc1ccccc1)C(=O)N[C@@H](CO)C(=O)N[C@@H](Cc1ccccc1)C(=O)NCC(=O)N1CCC[C@H]1C(=O)N1CCC[C@H]1C(=O)N[C@@H](Cc1ccc(O)cc1)C(=O)N[C@@H](CC(N)=O)C(=O)N[C@@H](CC(C)C)C(=O)O)[C@@H](C)O` [CAIEHMRTPLKPFSFGPPYNL], for which the MIC in [1] worked out at 3.46 µM (≈ 8.38 µg/mL).
Take `CC[C@H](C)[C@H](NC(=O)[C@H](CCCCN)NC(=O)[C@H](CCCCN)NC(=O)[C@H](CC(C)C)NC(=O)CN)C(=O)N[C@H](C(=O)N[C@@H](CCCCN)C(=O)N[C@@H](CCCCN)C(=O)N[C@@H](CC(C)C)C(=O)N[C@@H](CC(C)C)C(N)=O)[C@@H](C)CC` [GLKKIIKKLL]: the MIC was 13 µM (≈ 15 µg/mL) with Bacillus subtilis DELTA; 17.3 µM (≈ 20 µg/mL) in the experiment with Candida parapsilosis; 13 µM (≈ 15 µg/mL) in experiment [2]; no less than 173 µM in [3]; 17.3 µM (≈ 20 µg/mL) in experiment [4].
As for `CC[C@H](C)[C@H](NC(=O)[C@H](CC(=O)O)NC(=O)[C@H](CCCCN)NC(=O)[C@H](C)NC(=O)[C@H](C)NC(=O)CNC(=O)[C@H](C)NC(=O)[C@H](CC(C)C)NC(=O)[C@@H](NC(=O)[C@H](CC(=O)O)NC(=O)[C@@H](NC(=O)[C@@H](NC(=O)CN)C(C)C)C(C)C)[C@@H](C)CC)C(=O)N[C@@H](C)C(=O)NCC(=O)N[C@@H](Cc1cnc[nH]1)C(=O)N[C@@H](CC(C)C)C(=O)N[C@@H](C)C(=O)N[C@@H](CO)C(=O)N[C@@H](CCCCN)C(=O)N[C@H](C(=O)N[C@@H](CCSC)C(=O)N[C@@H](CC(N)=O)C(=O)N[C@@H](CCCCN)C(=O)N[C@@H](CC(C)C)C(N)=O)C(C)C` [GVVDILAGAAKDIAGHLASKVMNKL], the MIC is greater than 100 µM in [5]; greater than 100 µM in [6]; greater than 100 µM in experiment [7]; no less than 100 µM in [8]; greater than 100 µM in [9]; no less than 100 µM in experiment [10].
Regarding `CC[C@H](C)[C@H](NC(=O)[C@H](CC(=O)O)NC(=O)[C@H](CCCCN)NC(=O)[C@H](C)NC(=O)[C@H](C)NC(=O)CNC(=O)[C@H](CCCCN)NC(=O)[C@H](CC(C)C)NC(=O)[C@@H](NC(=O)[C@H](CC(=O)O)NC(=O)[C@@H](NC(=O)[C@@H](NC(=O)CN)C(C)C)C(C)C)[C@@H](C)CC)C(=O)N[C@@H](C)C(=O)NCC(=O)N[C@@H](Cc1cnc[nH]1)C(=O)N[C@@H](CC(C)C)C(=O)N[C@@H](C)C(=O)N[C@@H](CO)C(=O)N[C@@H](C)C(=O)N[C@H](C(=O)N[C@@H](CCSC)C(=O)N[C@@H](CC(N)=O)C(=O)N[C@@H](CCCCN)C(=O)N[C@@H](CC(C)C)C(N)=O)C(C)C` [GVVDILKGAAKDIAGHLASAVMNKL], the MIC in [5] is greater than 100 µM; in experiment [6], greater than 100 µM; in [7], greater than 100 µM; in experiment [8] it was no less than 100 µM; in experiment [9] it was 100 µM (≈ 249 µg/mL); in experiment [10] it was no less than 100 µM.
As to `CC[C@H](C)[C@H](N)C(=O)N[C@@H](CCCCN)C(=O)N[C@@H](CCCCN)C(=O)N[C@H](C(=O)N[C@@H](Cc1c[nH]c2ccccc12)C(=O)N[C@@H](CO)C(=O)N[C@@H](CCCCN)C(=O)N[C@H](C(=O)N[C@@H](CCCCN)C(=O)N[C@@H](CCCCN)C(=O)N[C@@H](Cc1c[nH]c2ccccc12)C(=O)N[C@@H](Cc1c[nH]c2ccccc12)C(=O)N[C@@H](CCCCN)C(=O)O)[C@@H](C)CC)[C@@H](C)CC` [IKKIWSKIKKWWK], the minimal inhibitory concentration (MIC) in experiment [11] is 2.5 µM (≈ 4.43 µg/mL); in experiment [12] it was 12.5 µM (≈ 22.2 µg/mL); in experiment [13], 4.69 µM (≈ 8.31 µg/mL); in experiment [14] it was 2.5 µM (≈ 4.43 µg/mL); against Bacillus cereus AS1.126, 6.25 µM (≈ 11.1 µg/mL); in experiment [15] it was no less than 100 µM. Further, the MIC in experiment [16] is no less than 100 µM; in [17], 5 µM (≈ 8.86 µg/mL); in experiment [18] it was no less than 100 µM; with Escherichia coli AS1.349, 2.5 µM (≈ 4.43 µg/mL).
As for `CC[C@H](C)[C@H](N)C(=O)N[C@@H](CC(N)=O)C(=O)NCC(=O)N[C@@H](CCSC)C(=O)N1CCC[C@H]1C(=O)N[C@@H](CCC(=O)O)C(=O)N[C@@H](CCC(=O)O)C(=O)N[C@H](C(=O)N[C@H](C(=O)N[C@@H](C)C(=O)N[C@@H](C)C(=O)O)C(C)C)C(C)C` [INGMPEEVVAA], the minimum inhibitory concentration (MIC) in experiment [19] and in experiment [20] was no less than 1000 µM throughout.
Consider `CC(C)C[C@H](NC(=O)[C@H](CCCN=C(N)N)NC(=O)[C@H](CC(C)C)NC(=O)[C@H](CC(C)C)NC(=O)[C@H](CCC(N)=O)NC(=O)[C@H](CCC(=O)O)NC(=O)[C@@H](N)CC(C)C)C(=O)N[C@@H](CCCCN)C(=O)N[C@@H](CCCCN)C(=O)N[C@@H](Cc1ccc(O)cc1)C(=O)O` [LEQLLRLKKY], for which the MIC in experiment [19] is no less than 633 µM; in experiment [20], no less than 1270 µM.
Regarding `CC[C@H](C)[C@H](NC(=O)[C@@H](N)C(C)C)C(=O)N[C@@H](Cc1cnc[nH]1)C(=O)N[C@@H](CCCCN)C(=O)N[C@@H](CC(C)C)C(=O)N[C@@H](C)C(=O)N[C@@H](CCCCN)C(=O)N[C@@H](CC(C)C)C(=O)N[C@@H](C)C(=O)N[C@@H](CCCCN)C(=O)N[C@@H](CCCCN)C(=O)N[C@@H](CC(C)C)C(=O)N[C@@H](C)C(=O)N[C@@H](CCCCN)C(=O)N[C@@H](CC(C)C)C(=O)N[C@@H](C)C(=O)N[C@@H](CCCCN)C(N)=O` [VIHKLAKLAKKLAKLAK], the MIC in the experiment on Escherichia coli DL7 is 0.25 µM and 0.125 µM; in experiment [21] it was no less than 32 µM; in experiment [22], 0.25 µM (≈ 0.468 µg/mL).
On to `CC[C@H](C)[C@H](NC(=O)[C@@H](NC(=O)[C@H](CCCCN)NC(=O)[C@@H](NC(=O)[C@H](CCCCN)NC(=O)[C@H](C)NC(=O)[C@H](CCC(N)=O)NC(=O)[C@@H](NC(=O)[C@@H](N)Cc1c[nH]c2ccccc12)[C@@H](C)CC)[C@@H](C)O)C(C)C)C(=O)N[C@@H](C)C(=O)N[C@@H](Cc1ccc(O)cc1)C(=O)N[C@H](C(=O)N[C@@H](CCCN=C(N)N)C(=O)N[C@@H](Cc1ccc(O)cc1)C(=O)N[C@@H](CC(C)C)C(=O)O)C(C)C` [WIQAKTKVIAYVRYL], for which the minimum inhibitory concentration (MIC) in [23] turned out to be 19.5 µM (≈ 36.2 µg/mL); in experiment [24], 2.44 µM (≈ 4.52 µg/mL).
Regarding `CC[C@H](C)[C@H](NC(=O)[C@@H](N)Cc1c[nH]c2ccccc12)C(=O)N[C@@H](CCC(N)=O)C(=O)N1CCC[C@H]1C(=O)N[C@@H](CCCCN)C(=O)N[C@H](C(=O)N[C@@H](CCCCN)C(=O)N[C@H](C(=O)N[C@H](C(=O)N1CCC[C@H]1C(=O)N[C@@H](C)C(=O)N[C@H](C(=O)N[C@@H](CCCN=C(N)N)C(=O)N[C@@H](C)C(=O)N[C@@H](CC(C)C)C(=O)O)C(C)C)[C@@H](C)CC)C(C)C)[C@@H](C)O` [WIQPKTKVIPAVRAL], the minimal inhibitory concentration (MIC) in experiment [23] was no less than 312 µM; in [24], no less than 156 µM.

The values above are taken from DBAASP.
